The structures appear in SMILES notation.

This data set concerns Sheep Red Cells. Put plainly: lysis of sheep red blood cells (lysis assay or SRC plate assay). In kind it is cell-based. The following applies: for Lethal concentration, SRC = Sheep Red Cells: Table 3; for concentration lytic to sheep red blood cells: running text. As to the method:
These values were obtained by either the lysis assay normally used for melittin or by an adaptation of the antibacterial inhibition zone assay of the above-cited Hultmark et al articles to plates with sheep red cells (SRC). With respect to the latter, sterile agarose plates contained 6 ml of medium With 1% agarose, 0.9% NaCl and 10% SRC suspended in Alsevers solution. A dilution series of peptide was applied in 3 mm wells each loaded with 3 μl of the respective samples. The plates were incubated at 30° C. for 24 h, the zones were recorded and LC values calculated as described in the Hultmark et al articles. Clear zones were recorded after a few hours of incubation and the use of such data gave an LC value of the same order as readings after 24 h. This plate assay is faster and more convenient than the lysis assay normally used for melittin.

Setting [1] is: Table 2, no incubation footnote.
Where [2] appears, read: Table 2, footnote a: incubation overnight at 30° C. as well as at 37° C.

Take `CC[C@H](C)[C@H](NC(=O)CNC(=O)[C@@H](NC(=O)[C@H](CCCCN)NC(=O)[C@H](CCCCN)NC(=O)[C@H](Cc1ccccc1)NC(=O)[C@H](CC(C)C)NC(=O)[C@H](CCCCN)NC(=O)[C@H](Cc1c[nH]c2ccccc12)NC(=O)[C@@H](N)CCCCN)[C@@H](C)CC)C(=O)NCC(=O)N[C@@H](C)C(=O)N[C@H](C(=O)N[C@@H](CC(C)C)C(=O)N[C@@H](CCCCN)C(=O)N[C@H](C(=O)N[C@@H](CC(C)C)C(=O)N[C@H](C(=O)N[C@H](C(=O)NCC(N)=O)[C@@H](C)O)[C@@H](C)O)C(C)C)C(C)C` [CA(1-8)M(1-12)]: under setting [1], the “Lethal concentration, Sheep Red Cells” value was greater than 600 µM.
For the molecule `CC[C@H](C)[C@H](NC(=O)CNC(=O)[C@@H](NC(=O)[C@H](CCCCN)NC(=O)[C@H](CCCCN)NC(=O)[C@H](Cc1ccccc1)NC(=O)[C@H](CC(C)C)NC(=O)[C@H](CCCCN)NC(=O)[C@H](Cc1c[nH]c2ccccc12)NC(=O)[C@@H](N)CCCCN)[C@@H](C)CC)C(=O)NCC(=O)N[C@@H](C)C(=O)N[C@H](C(=O)N[C@@H](CC(C)C)C(=O)N[C@@H](CCCCN)C(=O)N[C@H](C(=O)N[C@@H](CC(C)C)C(=O)N[C@H](C(=O)N[C@H](C(=O)NCC(=O)N[C@@H](CC(C)C)C(=O)N1CCC[C@H]1C(=O)N[C@@H](C)C(=O)N[C@@H](CC(C)C)C(=O)N[C@H](C(=O)N[C@@H](CO)C(N)=O)[C@@H](C)CC)[C@@H](C)O)[C@@H](C)O)C(C)C)C(C)C` [CA(1-8)M(1-18)], the “Lethal concentration, SRC = Sheep Red Cells” value turned out to be 600 µM.
Same read-out and setting: the same measure for `CC[C@H](C)[C@H](NC(=O)[C@H](CC(C)C)NC(=O)[C@H](C)NC(=O)[C@@H]1CCCN1C(=O)[C@H](CC(C)C)NC(=O)CNC(=O)[C@@H](NC(=O)[C@@H](NC(=O)[C@H](CC(C)C)NC(=O)[C@@H](NC(=O)[C@H](CCCCN)NC(=O)[C@H](CC(C)C)NC(=O)[C@@H](NC(=O)[C@H](C)NC(=O)CNC(=O)[C@@H](NC(=O)CNC(=O)[C@H](CCC(=O)O)NC(=O)[C@@H](NC(=O)[C@H](CCCCN)NC(=O)[C@H](CCCCN)NC(=O)[C@H](Cc1ccccc1)NC(=O)[C@H](CC(C)C)NC(=O)[C@H](CCCCN)NC(=O)[C@H](Cc1c[nH]c2ccccc12)NC(=O)[C@@H](N)CCCCN)[C@@H](C)CC)[C@@H](C)CC)C(C)C)C(C)C)[C@@H](C)O)[C@@H](C)O)C(N)=O` [CA(1-9)M(1-17)]: 600 µM.
For `CC[C@H](C)[C@H](NC(=O)CNC(=O)[C@H](CCC(N)=O)NC(=O)CNC(=O)[C@@H](NC(=O)[C@H](CCCCN)NC(=O)[C@H](CCC(=O)O)NC(=O)[C@@H](NC(=O)[C@H](CCCCN)NC(=O)[C@H](CCCCN)NC(=O)[C@H](Cc1ccccc1)NC(=O)[C@H](CC(C)C)NC(=O)[C@H](CCCCN)NC(=O)[C@H](Cc1c[nH]c2ccccc12)NC(=O)[C@@H](N)CCCCN)[C@@H](C)CC)C(C)C)C(=O)NCC(=O)N[C@@H](C)C(=O)N[C@H](C(=O)N[C@@H](CC(C)C)C(=O)N[C@@H](CCCCN)C(=O)N[C@H](C(=O)N[C@@H](CC(C)C)C(=O)N[C@H](C(=O)N[C@H](C(=O)NCC(=O)N[C@@H](CC(C)C)C(N)=O)[C@@H](C)O)[C@@H](C)O)C(C)C)C(C)C` [CA(1-13)M(1-13)], the “concentration lytic to sheep red blood cells” value (from here on “concentration lytic”) is no less than 100 µM. Under setting [2], the “Lethal concentration, Sheep Red Cells” value is greater than 200 µM. Further, the “concentration lytic” value (listed as CA(1-13) M(1-13)) is on record as “greater than 200 μM”.
For the molecule `CC[C@H](C)[C@H](NC(=O)CNC(=O)[C@@H]1CCCN1C(=O)CNC(=O)[C@H](C)NC(=O)[C@H](CCCCN)NC(=O)[C@@H](NC(=O)[C@@H](NC(=O)CNC(=O)[C@H](CC(=O)O)NC(=O)[C@H](CCCNC(=N)N)NC(=O)[C@@H](NC(=O)[C@H](CC(N)=O)NC(=O)[C@H](CCC(N)=O)NC(=O)CNC(=O)[C@@H](NC(=O)[C@H](CCCCN)NC(=O)[C@H](CCC(=O)O)NC(=O)[C@@H](NC(=O)[C@H](CCCCN)NC(=O)[C@H](CCCCN)NC(=O)[C@H](Cc1ccccc1)NC(=O)[C@H](CC(C)C)NC(=O)[C@H](CCCCN)NC(=O)[C@H](Cc1c[nH]c2ccccc12)NC(=O)[C@@H](N)CCCCN)[C@@H](C)CC)C(C)C)[C@@H](C)CC)[C@@H](C)CC)[C@@H](C)CC)C(=O)NCC(=O)N[C@@H](C)C(=O)N[C@H](C(=O)N[C@@H](CC(C)C)C(=O)N[C@@H](CCCCN)C(=O)N[C@H](C(=O)N[C@@H](CC(C)C)C(=O)N[C@H](C(=O)N[C@H](C(=O)NCC(=O)N[C@@H](CC(C)C)C(N)=O)[C@@H](C)O)[C@@H](C)O)C(C)C)C(C)C` [CA(1-24)M(1-13)], the “concentration lytic” value was no less than 100 µM. The “Lethal concentration, Sheep Red Cells” value under setting [2] was greater than 200 µM.
`CC[C@H](C)[C@H](NC(=O)[C@H](CCC(N)=O)NC(=O)[C@@H](NC(=O)[C@H](C)NC(=O)[C@H](CCC(N)=O)NC(=O)CNC(=O)[C@@H](NC(=O)[C@@H](NC(=O)[C@H](C)NC(=O)[C@@H](NC(=O)[C@H](C)N)C(C)C)C(C)C)C(C)C)[C@@H](C)O)C(=O)N[C@@H](C)C(=O)N[C@@H](CCCCN)C(=O)N[C@@H](CCCCN)C(=O)N[C@@H](Cc1c[nH]c2ccccc12)C(=O)N[C@@H](CCCCN)C(=O)N[C@@H](CC(C)C)C(=O)N[C@@H](Cc1ccccc1)C(=O)N[C@@H](CCCCN)C(=O)N[C@@H](CCCCN)C(=O)N[C@H](C(=O)N[C@@H](CCC(=O)O)C(=O)N[C@@H](CCCCN)C(=O)N[C@H](C(=O)NCC(=O)N[C@@H](CCC(N)=O)C(N)=O)C(C)C)[C@@H](C)CC` [CA(25-37)CA(1-13)]: the “Lethal concentration, Sheep Red Cells” value (Table 2, footnote b: incubation overnight at 30° C.) is greater than 300 µM.
Consider `CC[C@H](C)[C@H](NC(=O)CNC(=O)[C@H](CCCNC(=N)N)NC(=O)CNC(=O)[C@H](CCSC)NC(=O)[C@H](CCCCN)NC(=O)[C@H](CCC(=O)O)NC(=O)[C@@H](NC(=O)[C@H](CCCCN)NC(=O)[C@H](CCCCN)NC(=O)[C@H](Cc1ccccc1)NC(=O)[C@@H](NC(=O)[C@H](CCCCN)NC(=O)[C@H](Cc1c[nH]c2ccccc12)NC(=O)[C@@H](N)CCCCN)C(C)C)[C@@H](C)CC)C(=O)NCC(=O)N[C@@H](C)C(=O)N[C@H](C(=O)N[C@@H](CC(C)C)C(=O)N[C@@H](CCCCN)C(=O)N[C@H](C(=O)N[C@@H](CC(C)C)C(=O)N[C@H](C(=O)N[C@H](C(=O)NCC(=O)N[C@@H](CC(C)C)C(N)=O)[C@@H](C)O)[C@@H](C)O)C(C)C)C(C)C` [CB(1-13)M(1-13)], for which the “Lethal concentration, SRC = Sheep Red Cells” value was determined as 400 µM.
On to `CC[C@H](C)[C@H](NC(=O)CN)C(=O)NCC(=O)N[C@@H](C)C(=O)N[C@H](C(=O)N[C@@H](CC(C)C)C(=O)N[C@@H](CCCCN)C(=O)N[C@H](C(=O)N[C@@H](CC(C)C)C(=O)N[C@H](C(=O)N[C@H](C(=O)NCC(=O)N[C@@H](CC(C)C)C(=O)N[C@@H](CCCCN)C(=O)N[C@@H](Cc1c[nH]c2ccccc12)C(=O)N[C@@H](CCCCN)C(=O)N[C@@H](CC(C)C)C(=O)N[C@@H](Cc1ccccc1)C(=O)N[C@@H](CCCCN)C(=O)N[C@@H](CCCCN)C(=O)N[C@H](C(=O)N[C@@H](CCC(=O)O)C(=O)N[C@@H](CCCCN)C(=O)N[C@H](C(=O)NCC(=O)N[C@@H](CCC(N)=O)C(N)=O)C(C)C)[C@@H](C)CC)[C@@H](C)O)[C@@H](C)O)C(C)C)C(C)C` [M(1-13)CA(1-13)], for which the “Lethal concentration, SRC = Sheep Red Cells” value was found to be 80 µM. The “Lethal concentration, Sheep Red Cells” value under setting [1] came out at 80 µM.

The values are drawn from patent publication US5714467A, “Antibacterial and antimalarial hybrid peptides” (The Rockefeller University, priority 1993, dated 1998).
